Data: patent US8129518B2, “Synthetic polysaccharide antigens for immunological intervention in disease” (Eli Lilly and Company, priority 2004, dated 2012)

What was measured:
Assay type in all cases: cell-based
[1] = test system: human monocyte-derived dendritic cells; experiment: Kinetics of uptake by immature dendritic cells, flow cytometry; conditions: 0° C., cells metabolically inactive
Experimental: In these experiments, human monocyte-derived dendritic cells are prepared as described in Example 5. Dendritic cells are resuspended at 5×10^5 cells/sample and incubated on ice at […] At 0, 2, 10, 20, 30, 40, and 50 minutes after the start of incubation, uptake is stopped by washing the cells with four washes of ice cold flow wash buffer (Example 5). The washed cells are fixed in paraformaldehyde also as described in Example 5. Stained, fixed cells are stored at 4° C. protected from light until analysis using a FC500 flow cytometer (Beckman Coulter, Miami, Fla.).

[2] = test system: human monocyte-derived iDC; experiment: Uptake by immature dendritic cells, confocal microscopy; conditions: two minutes incubation at 37° C.; labeled Compound 1 50 μg/ml, FITC-dextran 1 mg/ml
Experimental: Briefly, Oregon-green (Molecular Probes, Eugene, Oreg.)-conjugated Lipid II is included in an MtgA polymerization reaction at a ratio of 1:4 with unlabeled Lipid II to produce a 25% Oregon-green labeled polymer. The polymeric material is purified and treated as previously described. […] After incubation, extracellular probe is removed by washing the cells four times in ice cold complete DC medium (Example 5). Washed cells are then incubated at 37° C. and staining is stopped at two-minute intervals by washing in 1% paraformaldehyde fix diluted in flow wash solution (which also contains the metabolic poison sodium azide; protocol described in Example 5). Glass slide samples are prepared at each time interval and sealed with clear nail polish. Samples are stored at −20° C. and protected from light until analysis on a Radiance 2100 confocal microscope (BioRad Laboratories, Hercules, Calif.).

human TLR-2 = target: T1, human TLR-2 (Homo sapiens, UniProt O60603); conditions: 1 ng/ml, positive stimulation control
T1 construct: expressed in transfected cells; host or cells: HEK293 cells (ATCC), transiently transfected with Fugene6
T1 sequence (O60603 21-784): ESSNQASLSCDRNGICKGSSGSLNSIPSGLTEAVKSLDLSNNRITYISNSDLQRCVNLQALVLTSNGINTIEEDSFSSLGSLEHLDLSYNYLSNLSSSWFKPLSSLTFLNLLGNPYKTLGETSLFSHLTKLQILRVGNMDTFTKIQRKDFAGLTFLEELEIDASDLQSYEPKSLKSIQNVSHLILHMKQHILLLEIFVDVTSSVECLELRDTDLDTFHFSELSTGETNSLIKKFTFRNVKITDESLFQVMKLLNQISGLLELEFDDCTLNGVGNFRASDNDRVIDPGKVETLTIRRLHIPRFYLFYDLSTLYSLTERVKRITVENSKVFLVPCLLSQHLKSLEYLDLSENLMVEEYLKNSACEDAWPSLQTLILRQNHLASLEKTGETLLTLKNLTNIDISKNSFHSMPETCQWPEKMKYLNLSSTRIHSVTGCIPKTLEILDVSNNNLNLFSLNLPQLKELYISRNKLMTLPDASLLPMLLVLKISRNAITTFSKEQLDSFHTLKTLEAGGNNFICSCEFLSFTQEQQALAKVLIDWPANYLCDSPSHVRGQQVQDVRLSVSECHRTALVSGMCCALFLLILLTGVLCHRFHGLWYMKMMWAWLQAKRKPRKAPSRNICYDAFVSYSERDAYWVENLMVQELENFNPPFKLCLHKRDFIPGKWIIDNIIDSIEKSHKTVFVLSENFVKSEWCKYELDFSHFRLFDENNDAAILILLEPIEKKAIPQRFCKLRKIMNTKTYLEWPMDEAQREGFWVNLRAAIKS
Excerpt: These experiments involve transfecting HEK293 cells (American Type Culture Collection, Manassas, Va.) with two plasmid DNAs. The first plasmid, pcDNA3.1/Hygro (Invitrogen), contains the human TLR-2 gene. The second plasmid, pNF-κB-luc (Stratagene, La Jolla, Calif.), encodes the NF-κB gene linked to a luciferase reporter gene whose product can be followed in vitro as a direct measure of NF-κB-activation. To prepare the DNA for transfection into the cells, Fugene6 (Roche, Basel Switzerland) transfecting reagent is diluted 1:6 in OPTI-MEM (Invitrogen, Carlsbad, Calif.) growth medium. Next, 75 ng of pNF-κB-luc and 300 ng of pcDNA3.1/Hygro DNA are added to the diluted Fugene6 and the mixture is incubated at 37° C. for 30 minutes. HEK293 cells at a concentration of 10^6 cells/ml are added to the DNA/Fugene6 mixture. […] The amount of luciferase activity resulting from incubation with the compounds is evaluated by removing the growth medium from the cells and replacing it with 100 μl of RLB lysis solution (Promega, Madison, Wis.). […] The luciferase activity of each cell culture is determined in a 25 μl aliquot of cell lysate in a Victor Luminometer (Perkin Elmer Life Sciences, Shelton, Conn.) according to the manufacturer's instructions. […]

Row | Substance | uptake by iDCs over time (mean fluorescence intensity) [1] | intracellular localization in iDCs (confocal images) [2] | increase in luciferase activity compared with unstimulated cultures (human TLR-2) [fold]
1 | FITC-Dextran | uptake is inhibited | Localization of polymer in endocytic vacuoles | 
2 | TNFα |  |  | 22.5
